Assay results from PubChem BioAssay AID256 (DTP/NCI, 2004).
Values joined by “and” are separate entries in the source; they are usually repeats but may differ in a detail not shown here. Identical values can stand only once. Toxic doses and inconclusive results are not listed. The calls were made as follows: active = survival T/C of 150% or more; inactive = T/C below 125% in these data.

Tested on: CD2F1 mice, L1210 leukemia ip, survival T/C
Experiment: NCI In Vivo Anticancer Drug Screen. Data for tumor model L1210 Leukemia (intraperitoneal) in CD2F1 (CDF1) mice
Settings: higher = longer survival
In short: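 Read-out first: treated-group measurement over vehicle-control measurement, expressed as a ratio. Animals bore a transplanted tumor line and were dosed with compound or vehicle.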

[1] = endpoint: mean survival time, dose: 25.0 mg/kg/injection, schedule: Q04DX003 (ip), vehicle: saline with Tween-80
[2] = endpoint: mean survival time, dose: 50.0 mg/kg/injection, schedule: Q04DX003 (ip), vehicle: saline with Tween-80
[3] = endpoint: mean survival time, dose: 100.0 mg/kg/injection, schedule: Q04DX003 (ip), vehicle: saline with Tween-80
[4] = endpoint: mean survival time, dose: 100.0 mg/kg/injection, schedule: Q01DX009 (ip), vehicle: saline with Tween-80
[5] = endpoint: mean survival time, dose: 200.0 mg/kg/injection, schedule: Q01DX009 (ip), vehicle: saline with Tween-80
[6] = endpoint: mean survival time, dose: 400.0 mg/kg/injection, schedule: Q01DX009 (ip), vehicle: saline with Tween-80
[7] = endpoint: mean survival time, dose: 200.0 mg/kg/injection, schedule: Q04DX003 (ip), vehicle: saline with Tween-80
[8] = endpoint: mean survival time, dose: 400.0 mg/kg/injection, schedule: Q04DX003 (ip), vehicle: saline with Tween-80
[9] = endpoint: mean survival time, dose: 100.0 mg/kg/injection, schedule: Q04DX003 (ip), vehicle: saline
[10] = endpoint: mean survival time, dose: 25.0 mg/kg/injection, schedule: Q04DX002 (ip), vehicle: saline with Tween-80
[11] = endpoint: mean survival time, dose: 50.0 mg/kg/injection, schedule: Q04DX002 (ip), vehicle: saline with Tween-80

Measured: T/C

COc1ccc(C(=O)N/N=C(\C)[C@]2(O)Cc3c(O)c4c(c(O)c3[C@@H](OC3CC(N)C(O)C(C)O3)C2)C(=O)c2c(OC)cccc2C4=O)cc1 (some centres undefined)
inactive: endpoint: mean survival time, dose: 0.5 mg/kg/injection, schedule: Q01DX009 (ip), vehicle: water 103 % of control | endpoint: mean survival time, dose: 1.0 mg/kg/injection, schedule: Q01DX009 (ip), vehicle: water 112 % of control | endpoint: mean survival time, dose: 2.0 mg/kg/injection, schedule: Q01DX009 (ip), vehicle: water 118 % of control | endpoint: mean survival time, dose: 4.0 mg/kg/injection, schedule: Q01DX009 (ip), vehicle: water 121 % of control

c1ccc(CCc2ccccn2)nc1
inactive: [1] 105 % of control | [2] 100 % of control | [3] 91 % of control and 103 % of control

Cc1ccc2c(c1)=N/C(=N\c1nc(O)c(O)[nH]1)N=2
inactive: [4] 104 % of control | [5] 92 % of control | [6] 104 % of control

C#CC(CC(C)CC(C)(C)C)N(C)C (centres undefined)
inactive: [4] 98 % of control

CC(C)C(Br)C(=O)NCC(=O)NCC(=O)O (centres undefined)
inactive: [3] 101 % of control | [7] 100 % of control | [8] 92 % of control

COC(=O)c1ccccc1N=NNc1ccc(C(F)(F)F)c([N+](=O)[O-])c1
inactive: [4] 103 % of control | [5] 95 % of control | [6] 95 % of control

COC(=O)C1C2OC3C(OC(=O)C31)C2Br (centres undefined)
inactive: [4] 91 % of control | [3] 86 % of control | [5] 91 % of control | [7] 94 % of control | [6] 95 % of control | [8] 91 % of control

CCOC(=O)CC(COC)C(Br)(C(=O)OCC)C(=O)OCC (centres undefined)
inactive: endpoint: mean survival time, dose: 1.56 mg/kg/injection, schedule: Q01DX009 (ip), vehicle: Klucel (hydroxypropylcellulose) (HPC) 104 % of control | endpoint: mean survival time, dose: 3.13 mg/kg/injection, schedule: Q01DX009 (ip), vehicle: Klucel (hydroxypropylcellulose) (HPC) 107 % of control | endpoint: mean survival time, dose: 6.25 mg/kg/injection, schedule: Q01DX009 (ip), vehicle: Klucel (hydroxypropylcellulose) (HPC) 102 % of control | endpoint: mean survival time, dose: 12.5 mg/kg/injection, schedule: Q01DX009 (ip), vehicle: Klucel (hydroxypropylcellulose) (HPC) 104 % of control | endpoint: mean survival time, dose: 25.0 mg/kg/injection, schedule: Q01DX009 (ip), vehicle: Klucel (hydroxypropylcellulose) (HPC) 104 % of control

c1ccc([B-]2([C+]3CCCCC3)N3CCCCC3C3CCCCN32)cc1 (centres undefined)
inactive: endpoint: mean survival time, dose: 3.12 mg/kg/injection, schedule: Q01DX009 (ip), vehicle: saline 90 % of control | endpoint: mean survival time, dose: 6.25 mg/kg/injection, schedule: Q01DX009 (ip), vehicle: saline 95 % of control | endpoint: mean survival time, dose: 12.5 mg/kg/injection, schedule: Q01DX009 (ip), vehicle: saline 101 % of control | endpoint: mean survival time, dose: 25.0 mg/kg/injection, schedule: Q01DX009 (ip), vehicle: saline 102 % of control | endpoint: mean survival time, dose: 50.0 mg/kg/injection, schedule: Q01DX009 (ip), vehicle: saline 86 % of control

CN(C)/C=N/N1C(=O)CSC1=S
inactive: endpoint: mean survival time, dose: 25.0 mg/kg/injection, schedule: Q04DX003 (ip), vehicle: saline 107 % of control | endpoint: mean survival time, dose: 50.0 mg/kg/injection, schedule: Q04DX003 (ip), vehicle: saline 103 % of control | [9] 101 % of control and 103 % of control

CC/C(=N/O)c1ccccc1
inactive: [4] 98 % of control | [5] 92 % of control | [6] 103 % of control

COc1ccc2[nH]c(-c3ccccc3)cc2c1
inactive: [3] 93 % of control | [7] 88 % of control | [8] 98 % of control

Cc1ccc([N+](=O)[O-])cc1NC(=O)Nc1ccon1
inactive: endpoint: mean survival time, dose: 50.0 mg/kg/injection, schedule: Q01DX009 (ip), vehicle: Klucel (hydroxypropylcellulose) (HPC) 108 % of control | endpoint: mean survival time, dose: 100.0 mg/kg/injection, schedule: Q01DX009 (ip), vehicle: Klucel (hydroxypropylcellulose) (HPC) 96 % of control | endpoint: mean survival time, dose: 200.0 mg/kg/injection, schedule: Q01DX009 (ip), vehicle: Klucel (hydroxypropylcellulose) (HPC) 98 % of control

CCC(=O)C(C)N(C)c1ccccc1 (centres undefined)
inactive: [9] 100 % of control | endpoint: mean survival time, dose: 200.0 mg/kg/injection, schedule: Q04DX003 (ip), vehicle: saline 100 % of control | endpoint: mean survival time, dose: 400.0 mg/kg/injection, schedule: Q04DX003 (ip), vehicle: saline 94 % of control

C[P+](c1ccc(F)cc1)(c1ccc(F)cc1)c1ccc(F)cc1
inactive: [10] 100 % of control | [11] 92 % of control

O=c1[nH]c2ccccc2nc1Cl
inactive: [10] 94 % of control | [11] 94 % of control | endpoint: mean survival time, dose: 100.0 mg/kg/injection, schedule: Q04DX002 (ip), vehicle: saline with Tween-80 94 % of control | endpoint: mean survival time, dose: 200.0 mg/kg/injection, schedule: Q04DX002 (ip), vehicle: saline with Tween-80 90 % of control | endpoint: mean survival time, dose: 400.0 mg/kg/injection, schedule: Q04DX002 (ip), vehicle: saline with Tween-80 90 % of control

O=P(OCc1ccccc1)(N(CCCl)CCCl)N1CCCCC1 (centres undefined)
inactive: endpoint: mean survival time, dose: 62.5 mg/kg/injection, schedule: Q01DX010 (ip), vehicle: saline 98 % of control | endpoint: mean survival time, dose: 125.0 mg/kg/injection, schedule: Q01DX010 (ip), vehicle: saline 101 % of control | endpoint: mean survival time, dose: 250.0 mg/kg/injection, schedule: Q01DX010 (ip), vehicle: saline 90 % of control

NC(=S)Nc1ccccn1
inactive: [1] 100 % of control | [2] 102 % of control | [3] 93 % of control

CCCCCCC[CH2][Sn]1([CH2]CCCCCCC)[O]CC2OC(n3cc(C)c(=O)[nH]c3=O)CC2[O]1 (centres undefined)
inactive: endpoint: mean survival time, dose: 12.5 mg/kg/injection, schedule: Q01DX005 (ip), vehicle: other 94 % of control | endpoint: mean survival time, dose: 25.0 mg/kg/injection, schedule: Q01DX005 (ip), vehicle: other 100 % of control | endpoint: mean survival time, dose: 50.0 mg/kg/injection, schedule: Q01DX005 (ip), vehicle: other 114 % of control

O=C(NNC(=O)OCC(Cl)(Cl)Cl)OCC(Cl)(Cl)Cl
inactive: [3] 102 % of control

Cn1c(=O)c2c(ncn2C2C(=O)NNC2=O)n(C)c1=O
inactive: endpoint: mean survival time, dose: 12.5 mg/kg/injection, schedule: Q01DX005 (ip), vehicle: distilled water + Tween-80 102 % of control | endpoint: mean survival time, dose: 25.0 mg/kg/injection, schedule: Q01DX005 (ip), vehicle: distilled water + Tween-80 104 % of control | endpoint: mean survival time, dose: 50.0 mg/kg/injection, schedule: Q01DX005 (ip), vehicle: distilled water + Tween-80 104 % of control | endpoint: mean survival time, dose: 100.0 mg/kg/injection, schedule: Q01DX005 (ip), vehicle: distilled water + Tween-80 98 % of control | endpoint: mean survival time, dose: 200.0 mg/kg/injection, schedule: Q01DX005 (ip), vehicle: distilled water + Tween-80 92 % of control | endpoint: mean survival time, dose: 400.0 mg/kg/injection, schedule: Q01DX005 (ip), vehicle: distilled water + Tween-80 95 % of control

O=C1C=C(N2CC2)C(=O)C=C1N1CC1
inactive: endpoint: mean survival time, dose: 0.12 mg/kg/injection, schedule: Q01DX Z (ip), vehicle: saline 120 % of control and 103 % of control | endpoint: mean survival time, dose: 0.25 mg/kg/injection, schedule: Q01DX Z (ip), vehicle: saline 119 % of control | endpoint: mean survival time, dose: 0.5 mg/kg/injection, schedule: Q01DX Z (ip), vehicle: saline 120 % of control | endpoint: mean survival time, dose: 1.0 mg/kg/injection, schedule: Q01DX Z (ip), vehicle: saline 91 % of control

CC(=O)CC(=O)c1ccccc1.CC(=O)CC(=O)c1ccccc1.CC(=O)CC(=O)c1ccccc1.[Cr]
inactive: endpoint: median survival time, dose: 50.0 mg/kg/injection, schedule: Q04DX002 (ip), vehicle: saline with Tween-80 88 % of control | endpoint: median survival time, dose: 100.0 mg/kg/injection, schedule: Q04DX002 (ip), vehicle: saline with Tween-80 88 % of control | endpoint: median survival time, dose: 200.0 mg/kg/injection, schedule: Q04DX002 (ip), vehicle: saline with Tween-80 88 % of control | endpoint: median survival time, dose: 400.0 mg/kg/injection, schedule: Q04DX002 (ip), vehicle: saline with Tween-80 88 % of control

CC1(C)SSC(C)(C)SS1
inactive: [3] 106 % of control | [7] 97 % of control | [8] 103 % of control

NC(=O)/C=C/C1=NCCC1
inactive: endpoint: mean survival time, dose: 7.5 mg/kg/injection, schedule: Q04DX003 (ip), vehicle: saline with Tween-80 97 % of control | endpoint: mean survival time, dose: 15.0 mg/kg/injection, schedule: Q04DX003 (ip), vehicle: saline with Tween-80 97 % of control | endpoint: mean survival time, dose: 30.0 mg/kg/injection, schedule: Q04DX003 (ip), vehicle: saline with Tween-80 102 % of control | [4] 100 % of control | [5] 103 % of control | [6] 103 % of control

NC(=O)CC(NC(=O)C(F)(F)F)C(=O)O (centres undefined)
inactive: endpoint: mean survival time, dose: 75.0 mg/kg/injection, schedule: Q01DX001 (ip), vehicle: saline 101 % of control | endpoint: mean survival time, dose: 150.0 mg/kg/injection, schedule: Q01DX001 (ip), vehicle: saline 95 % of control | endpoint: mean survival time, dose: 300.0 mg/kg/injection, schedule: Q01DX001 (ip), vehicle: saline 101 % of control

CC1(C)OCC2OC3(CO)NP(=O)(N(CCCl)CCCl)OC3C2O1 (centres undefined)
inactive: endpoint: mean survival time, dose: 62.5 mg/kg/injection, schedule: Q01DX001 (ip), vehicle: distilled water + Tween-80 102 % of control | endpoint: mean survival time, dose: 125.0 mg/kg/injection, schedule: Q01DX001 (ip), vehicle: distilled water + Tween-80 101 % of control | endpoint: mean survival time, dose: 250.0 mg/kg/injection, schedule: Q01DX001 (ip), vehicle: distilled water + Tween-80 93 % of control
